Where two headings read alike, the source gives them in different places.
Columns and labels:
X-inactivation = conditions: cited from earlier work
FMR1 mRNA = conditions: Baicsi, 2008; cited from earlier work
MeCP2^tm1.1Jae mice = test system: MeCP2^tm1.1Jae mice; set-up: key to Lifespan / Normal breathing / Motor function / Motility: ↑: increased; ↓: decreased; conditions: cited from earlier work
histone acetylation = conditions: brief description of the histone acetylation mechanism; cited from earlier work
MeCP2^1lox mice = test system: MeCP2^1lox mice; set-up: key: ↑: increased; ↓: decreased; conditions: Schaevitz, 2012, cited from earlier work
Non-Hodgkin's Lymphoma = conditions: continued regime of DCA and thiamine; cited from earlier work
[1] = Flavin, 2010; cited from earlier work
[2] = radioactive DCA; exhaled in breath; cited from earlier work
MeCP2^tm1.1Bird mice = test system: MeCP2^tm1.1Bird mice; set-up: key: ↑: increased; ↓: decreased; conditions: cited from earlier work
Human females = test system: Human females; set-up: key to Apneias: ↑: increased; ↓: decreased; conditions: cited from earlier work; for Apneias: Krajnc, 2013, Khwaja, 2014
[3] = test system: Fragile X syndrome patients; conditions: 12 weeks; from ˜50%; cited from earlier work
[4] = test system: polyglutamine induced cell death; conditions: McCampbell, 2001; cited from earlier work
[5] = test system: Silenced MeCP2 in mouse neurons; set-up: key: ↑: increased; ↓: decreased; conditions: Ma, 2015; cited from earlier work
16 month old mice = conditions: Peleg, 2010; cited from earlier work
R6/2 HD mice = conditions: cited from earlier work
animals = conditions: cited from earlier work
Rats = conditions: 30 days, diet with 28.5% of total calories supplied by Triacetin; cited from earlier work
[6] = test system: adult offspring of Low LG maternal care; conditions: Weaver et al., 2004; cited from earlier work
MeCP2 KO mice = test system: MeCP2 KO mice; set-up: key: ↑: increased; ↓: decreased; conditions: Park, 2014; cited from earlier work
[7] = test system: MeCP2-mutated human fibroblasts; assay: Tubastatin A in MeCP2-mutated human fibroblasts; conditions: 1 μM versus 5 mM butyrate
[8] = test system: MeCP2-mutated human fibroblasts; conditions: Gold, 2015; cited from earlier work
[9] = test system: ectopically methylated DNA; conditions: cells harvested 48 hours after treatment; cited from earlier work
HDAC = conditions: Ookubo, 2013; cited from earlier work
histones = conditions: radiolabeled acetate; cited from earlier work
cultured colon cells = conditions: Mariadason, 2000; cited from earlier work
MeCP2^tm1HzO mice = test system: MeCP2^tm1HzO mice; set-up: key: ↑: increased; ↓: decreased; conditions: Ben-Zeev, 2011, cited from earlier work
MecP2-null mice = test system: MecP2-null mice; set-up: key to Lifespan / Normal breathing / Motor function: ↑: increased; ↓: decreased; conditions: 2009, cited from earlier work

In the case of `Nc1ncn([C@H]2C[C@H](O)[C@@H](CO)O2)c(=O)n1` [5-azadC, 5-aza-2′-deoxycytidine], the “number of cells that lost their X-inactivation” value (X-inactivation; Xist on) is given as 19 × as many compared to controls, the “number of cells that lost their X-inactivation” value (X-inactivation; combined with Xist deletion) is given as 30 × as many compared to controls and the “FMR1 mRNA relative to normal control cells” value (FMR1 mRNA) is given as “approximately 20%”.

For `O=c1cc(-c2ccccc2)oc2c(O)c(O)ccc12` [7,8-dihydroxyflavone], the Lifespan (MeCP2^tm1.1Jae mice; Johnson, 2011) is listed as “↑ Lifespan, ↑ Normal breathing,”, the Motor function (MeCP2^tm1.1Jae mice; Johnson, 2011) is listed as “↑ Motor function” and the Normal breathing (MeCP2^tm1.1Jae mice; Johnson, 2011) is listed as “↑ Lifespan, ↑ Normal breathing,”.

For `CC(=O)O[C@H](CC(=O)[O-])C[N+](C)(C)C` [Acetyl-L-Carnitine], the “Histone acetylation (mechanism)” value (histone acetylation) is listed as “Increases Acetyl-CoA”, the Motor function (MeCP2^1lox mice; Nag, 2007) is listed as “↑ Motor function” and the Forepaw grip strength (MeCP2^1lox mice) is listed as “↑ Forepaw grip strength,”.

For `O=C(O)C(Cl)Cl` [DCA, dichloroacetate], the monthly blood tests (Non-Hodgkin's Lymphoma) is given as “normal”, the “toxicity of prolonged exposure” value [1] is given as “peripheral neuropathy” and the “fraction metabolized to carbon dioxide” value [2] is given as “up to 50%”.

In the case of `CNCCCN1c2ccccc2CCc2ccccc21` [Desipramine], the TH expressing neurons (MeCP2^tm1.1Bird mice; Roux, 2007, Szczesna, 2014) is given as “↑” and the Apneas (MeCP2^tm1.1Bird mice; Roux, 2007) is given as “↓”.

For `CNC1(c2ccccc2Cl)CCCCC1=O` (stereo not shown) [Ketamine], the “PPI of the ASR (cognitive function)” value (MeCP2^tm1.1Jae mice; Kron, 2012) is listed as “Improved PPI of the ASR (cognitive” and the “Histone acetylation (mechanism)” value (histone acetylation) is listed as “HDACi activity in the Nucleus”.

In the case of `C[N+](C)(C)C[C@H](O)CC(=O)[O-]` [L-Carnitine], the “Histone acetylation (mechanism)” value (histone acetylation) is given as “Increases Acetyl-CoA”, the “Hand Apraxia Scale assessment” value (Human females; Ellaway, 1999) is given as “no effect on Hand Apraxia Scale” and the “Patient Well Being Index” value (Human females; Ellaway, 1999) is given as “Improved Patient Well Being Index,”.

For `N[C@@H](Cc1ccc(O)c(O)c1)C(=O)O` [Levodopa], the “Histone acetylation (mechanism)” value (histone acetylation) is listed as “Histone acetylation,”, the TH expressing neurons (MeCP2^tm1.1Bird mice; Roux, 2007, Szczesna, 2014) is listed as “↑ TH expressing neurons” and the Hind-limb clasping (MeCP2^tm1.1Bird mice; Szczesna, 2014) is listed as “↓”. For the same molecule, the Lifespan (MeCP2^tm1.1Bird mice; Szczesna, 2014) was “↑”, the Motor function (MeCP2^tm1.1Bird mice; Szczesna, 2014) was “↑” and the Tremor (MeCP2^tm1.1Bird mice; Szczesna, 2014) was “↓”.

For `CC[C@H](C)C(=O)O[C@H]1C[C@@H](C)C=C2C=C[C@H](C)[C@H](CC[C@@H]3C[C@@H](O)CC(=O)O3)[C@H]21` [Lovastatin], the “Aberrant Behavior Checklist score” value [3] is given as roughly 30%.

In the case of `O=C(O)CCCc1ccccc1` [PBA, phenylbutyric acid], the “ability to reduce cell death” value [4] is given as “reduction in cell death” and the “expression of AR [the mutant protein]” value [4] is given as “slightly increased”.

For `CCCC(C)C1(CC)C(=O)NC(=O)NC1=O` (stereo not shown) [Pentobarbatol], the “Synaptic transmission (calcium spikes)” value [5] is listed as “↑Synaptic transmission (calcium” and the dendrite growth [5] is listed as “↑ dendrite growth,”.

For `O=C(CCCCCCC(=O)Nc1ccccc1)NO` [SAHA, Vorinostat], the “ability to reduce cell death” value [4] is listed as “comparable to TSA”, the “expression of AR [the mutant protein]” value [4] is listed as “slightly increased” and the memory (16 month old mice) is listed as “improves”. The Motor function (R6/2 HD mice; added to drinking water) was “marked improvement”, the blood-brain barrier crossing (R6/2 HD mice; mouse, in vivo) was “crosses the blood-brain barrier” and the “histone acetylation in the brain” value (R6/2 HD mice; mouse, in vivo) was “increases”.

In the case of `O=C1CCc2c(ccc3ccccc23)O1` [Splitomycin], the “FMR1 mRNA relative to normal control cells” value (FMR1 mRNA) is listed as “approximately 20%”.

In the case of `CC1(C)O[C@@H]2[C@@H](CO[C@@]3(COS(N)(=O)=O)OC(C)(C)O[C@@H]23)O1` [Topiramate], the “Histone acetylation (mechanism)” value (histone acetylation) is given as “HDACi” and the Apneias (Human females) is given as “↓ Apneias”.

For `CC(=O)OCC(COC(C)=O)OC(C)=O` [Triacetin, glycerin triacetate], the metabolism (animals; CIREP, 2003) is given as “quickly metabolized into glycerol and acetic acid”, the “toxicity in acute oral or dermal exposures” value (animals; CIREP, 2003) is given as “not toxic” and the “tolerated triacetin as a percentage of total diet” value (animals; replacing conventional carbohydrates, Shapira, 1968) is given as “up to 20%”. The signs of toxicity (Rats) was “No overt signs of toxicity”.

For `CC(/C=C/C(=O)NO)=C\[C@@H](C)C(=O)c1ccc(N(C)C)cc1` [Trichostatin A], the “ability to reduce cell death” value [4] is given as “reduce cell death”, the “expression of AR [the mutant protein]” value [4] is given as “slightly increased” and the “X-inactivation of the cells” value (X-inactivation; even if Xist was turned off) is given as “no change”. The acetylation [6] was “increased”, the “glucocorticoid receptor gene activation” value [6] was “to levels indistinguishable from adult offspring of High LG maternal care” and the methylation [6] was “reduced”. For the same molecule, the stress response [6] was “reduced”.

In the case of `CCCCCCC(=O)OCC(COC(=O)CCCCCC)OC(=O)CCCCCC` [Triheptanoin], the Lifespan (MeCP2 KO mice) is listed as “↑ Lifespan, ↑ Social interaction,”, the Motor function (MeCP2 KO mice) is listed as “↑ Motor function” and the Social interaction (MeCP2 KO mice) is listed as “↑ Lifespan, ↑ Social interaction,”. The “Histone acetylation (mechanism)” value (histone acetylation) was “Metabolizes to Acetyl-CoA”.

In the case of `CN1CCc2c(c3ccccc3n2Cc2ccc(C(=O)NO)cc2)C1` [Tubastatin A], the “Histone acetylation (mechanism)” value (histone acetylation) is given as “HDACi”, the “HDACi activity relative to butyrate” value [7] is given as 5000 times and the “concentration at which it is a specific HDACi inhibitor (as low as)” value [8] is given as 1 µM. For the same molecule, the mictotubules depolymerization [8] was “Protects mictotubules from”.

For `CCCC(CCC)C(=O)O` [Valproic acid], the Motility (MeCP2^tm1.1Jae mice; Guo, 2014) is listed as “↑ Motility,”, the “gene expression in brain” value (MeCP2^tm1.1Jae mice; Guo, 2014) is listed as “Normalized gene expression in brain” and the neurological symptoms (MeCP2^tm1.1Jae mice; Guo, 2014) is listed as “Improved neurological symptoms,”. The “Histone acetylation (mechanism)” value (histone acetylation) was “HDACi”, the “demethylation of ectopically methylated DNA” value [9] was “stimulates active demethylation” and the HDAC inhibitor activity (HDAC) was “HDAC inhibitors”.

For `CC(=O)O` [acetate], the “time for histones to become significantly acetylated” value (histones) is listed as no more than 15 min.

For `NC(=O)N1c2ccccc2C=Cc2ccccc21` [carbamazepine], the HDAC inhibitor activity (HDAC) is given as “HDAC inhibitors”.

For `CN(C)CCCN1c2ccccc2CCc2ccc(Cl)cc21` [clomipramine], the HDAC inhibitor activity (HDAC) is listed as “HDAC inhibitors”.

In the case of `CNCC[C@H](Oc1cccc2ccccc12)c1cccs1` [duloxetine], the HDAC inhibitor activity (HDAC) is listed as “HDAC inhibitors”.

For `Nc1nnc(-c2cccc(Cl)c2Cl)c(N)n1` [lamotrigine], the HDAC inhibitor activity (HDAC) is listed as “HDAC inhibitors”.

In the case of `CC[C@@H](C(N)=O)N1CCCC1=O` [levetriacetam], the HDAC inhibitor activity (HDAC) is given as “HDAC inhibitors”.

For `[Cl-].[Li+]` [lithium chloride], the HDAC inhibitor activity (HDAC) is listed as “HDAC inhibitors”.

For `NC(=O)N1c2ccccc2CC(=O)c2ccccc21` [oxcarbazepine], the HDAC inhibitor activity (HDAC) is listed as “HDAC inhibitors”.

In the case of `CCCC(=O)[O-].[Na+]` [sodium butyrate], the “ability to reduce cell death” value [4] is listed as “reduction in cell death”, the “expression of AR [the mutant protein]” value [4] is listed as “slightly increased” and the “number of genes modified relative to TSA” value (cultured colon cells) is listed as “roughly 10 times”.

For Glatiramer acetate, the “Histone acetylation (mechanism)” value (histone acetylation) is listed as “Contains acetate”, the BDNF (MeCP2^tm1HzO mice) is listed as “↑ BDNF” and the BDNF (MeCP2^tm1HzO mice; text) is listed as “increase”.

For IGF-1: Insulin-like Growth Factor 1, the “Histone acetylation (mechanism)” value (histone acetylation) is given as “Increases H3, H4 Histone”, the Apneias (Human females) is given as “↓ Apneias” and the “9 separate measures of RTT symptoms in mice” value (MecP2-null mice; MeCP2 mutant mice, Tropea) is given as “partially rescued”. For the same molecule, the Lifespan (MecP2-null mice; Trpoea) was “↑ Lifespan, ↑ Normal breathing,”, the Motor function (MecP2-null mice; Trpoea) was “↑ Motor function” and the Normal breathing (MecP2-null mice; Trpoea) was “↑ Lifespan, ↑ Normal breathing,”.

B1: Exogenous BDNF: Brain Derived Neurotrophic Factor protein, given exogenously (protein, UniProt P23560 129-247, looked up)
Neurotrophic factor BDNF: HSDPARRGELSVCDSISEWVTAADKKTAVDMSGGTVTVLEKVPVSKGQLKQYFYETKCNPMGYTKEGCRGIDKRHWNSQCRTTQSYVRALTMDSKKRIGWRFIRIDTSCVCTLTIKRGR
modifications: Neurotrophic factor BDNF
In the case of B1, the “synaptic function in brainstem slices” value (MeCP2^tm1.1Jae mice; Kline, 2010, listed as exogenous BDNF) is listed as “normalize”.

Source: US10583106B2, “Method of treating cancer by oral administration of acetate composition comprising magnesium acetate, calcium acetate or ethylacetate” (priority 2015, dated 2020)
